Read-outs that look alike come from different tables or passages of the source.
Legend:
recombinant CHO cells [1] = settings: batch culture, end of the production run (after 8 days of culture); cited from earlier work
recombinant CHO cells [2] = settings: perfusion batch culture, within 6 days of treatment; cited from earlier work
[3] = tested on: CHO-S cells expressing IgG1 mAb1; experiment: Fed-batch cell culture in microplates, cells expressing mAb1, with DIDS; assay type: cell-based, Chinese hamster
Protocol: (§1) Assays were performed with 2 CHO cell lines: • CHO-S cells expressing IgG1 mAb1, herein “Cells mAb1” or “mAb1 cells”. “mAb1” is a fully human monoclonal antibody directed against a soluble protein. Its isoelectric point (pI) is about 8.20-8.30. • CHO-K1 cells expressing IgG1 mAb2, herein “Cells mAb2” or “mAb2 cells”. “mAb2” is a humanised monoclonal antibody directed against a receptor found on the cell membrane. Its isoelectric point (pI) is about 9.30.
(§2) Cells expressing mAb2 were inoculated at 0.2×10^6 cells per milliliter (mL), whereas cells expressing mAb1 were inoculated at 0.3×10^6 cells per mL.
(§3) All assays were performed in fed-batch culture. The host cells were cultured in fed-batch system either in microplates (“Deep well plate”) or in Spin Tubes®, and incubated at 36.5° C., 90% relative humidity, 5% CO2 and 320 rpm shaking during 14 days.
(§4) Viable cell density and viability were measured with the Guava easyCyte® flow cytometer or with the ViCell.
(§5) Antibody titres were measured either with the fortéBIO Octet® or with Biacore C®.
(§6) Glycosylation profiles were established by capillary gel electrophoresis with laser-induced fluorescence (CGE-LIF). Dosages of aggregates and fragments were performed respectively via Size Exclusion High Performance Liquid Chromatography (SE-HPLC) and via SDS-capillary gel electrophoresis.
The host cells expressing the antibody mAb1 were cultured in presence of DIDS at concentrations ranging from 0.4 μM to 83 μM. The cell density and the viability were measured during the culture, whereas the titre was measured on day 14 (FIGS. 1A-1C). Addition of DIDS in the culture medium allowed increase of viable cell density and the titre. Specifically the concentration of 83 μM of DIDS allowed to double the cell density at day 7 (WD7) and to multiply the titre by factor 1.4 at the end of the culture process at day 14 (WD14). The viability was maintained, compared to the control, until day 12.

[4] = tested on: CHO-K1 cells expressing IgG1 mAb2; assay type: cell-based, Chinese hamster
Protocol: as §1, §2, §3, §4, §5, §6
(§7) The efficacy of DIDS was also tested in Spin tubes at concentrations around 40 μM (41 μM) and/or around 85 μM (82 μM for mAb1 and 87 μM for mAb2). These concentrations are not toxic for the host cells expressing the antibodies mAb1 and mAb2 and allowed to obtain an important increase of the cell density and the titre of the antibody mAb1 (FIG. 3). As expected for the cells expressing the antibody mAb1, the viable cell density and the specific production increase in the presence of DIDS, which allowed at DIDS concentration of 82 μM to multiply the titre by factor 1.4 comparing to the control (FIGS. 3A-3D). […] Similar results are observed for mAb2: DIDS allowed the increase of the specific productivity of the host cells expressing the antibodies mAb2 (about 20% increase at day 10), and is able to maintain the viability of the cells for about 10 days (FIGS. 3E-H).

[5] = tested on: CHO-S cells expressing IgG1 mAb1; assay type: cell-based, Chinese hamster; settings: Spin tubes
Protocol: as §1, §2, §3, §4, §5, §6, §7

[6] = in the presence of DIDS (41 μM, 82 μM)

For `CCCC(=O)[O-].[Na+]` [sodium butyrate], which cell viability (recombinant CHO cells [1]) is on record?
Its cell viability is “less than 45%”.

And the cell viability (recombinant CHO cells [2])?
Its cell viability is 15%.

Which cell density ([3]; 83 μM DIDS, day 7 (WD7), microplates, versus control) does the source give for `O=S(=O)([O-])c1cc(N=C=S)ccc1/C=C/c1ccc(N=C=S)cc1S(=O)(=O)[O-].[Na+].[Na+]` [DIDS, 4,4′-diisothiocyanostilbene-2,2′-disulfonic acid] here?
The cell density was “double”.

And the “titre multiplied by factor” value ([3]; 83 μM DIDS, end of culture day 14 (WD14), microplates, versus control)?
The value was 1.4.

And the viability ([3]; compared to the control, until day 12, DIDS 0.4 μM to 83 μM)?
Its viability is “maintained”.

And the “toxicity for the host cells expressing mAb2” value ([4]; DIDS around 40 μM (41 μM) and/or 87 μM, Spin tubes)?
The value was “not toxic”.

And the “time for which viability of the cells is maintained” value ([4]; Spin tubes, mAb2 cells)?
The value was “about 10 days”.

And the “increase of the specific productivity” value ([4]; day 10, Spin tubes, mAb2 cells)?
Its value is “about 20%”.

And the “titre multiplied by factor” value ([5]; 82 μM DIDS, comparing to the control)?
Its value is 1.4.

What about the “toxicity for the host cells expressing mAb1” value ([5]; DIDS 41 μM and 82 μM) of the same molecule?
Its value is “not toxic”.

And the specific production [5, 6]?
Its specific production is “increase”.

What about the viable cell density [5, 6] of the same molecule?
The viable cell density was “increase”.
